Laboratory results: ChEMBL document CHEMBL4610009, “Modification of the lead molecule: Tryptophan and piperidine appended triazines reversing inflammation and hyeperalgesia in rats” (Bioorg Med Chem, 2020)
Converted amounts (≈) assume the structure as drawn. The source made the active and inactive calls. The rule behind the calls is not given here.

Legend:
[1] = target: Prostaglandin G/H synthase 1 (Homo sapiens) (UniProt P23219); assay: Inhibition of calcium ionophore-activated COX1 in human whole blood assessed as TXB2 level at 1 uM by ELISA; format: tissue-based
Prostaglandin G/H synthase 1 (Homo sapiens), sequence (P23219 whole entry): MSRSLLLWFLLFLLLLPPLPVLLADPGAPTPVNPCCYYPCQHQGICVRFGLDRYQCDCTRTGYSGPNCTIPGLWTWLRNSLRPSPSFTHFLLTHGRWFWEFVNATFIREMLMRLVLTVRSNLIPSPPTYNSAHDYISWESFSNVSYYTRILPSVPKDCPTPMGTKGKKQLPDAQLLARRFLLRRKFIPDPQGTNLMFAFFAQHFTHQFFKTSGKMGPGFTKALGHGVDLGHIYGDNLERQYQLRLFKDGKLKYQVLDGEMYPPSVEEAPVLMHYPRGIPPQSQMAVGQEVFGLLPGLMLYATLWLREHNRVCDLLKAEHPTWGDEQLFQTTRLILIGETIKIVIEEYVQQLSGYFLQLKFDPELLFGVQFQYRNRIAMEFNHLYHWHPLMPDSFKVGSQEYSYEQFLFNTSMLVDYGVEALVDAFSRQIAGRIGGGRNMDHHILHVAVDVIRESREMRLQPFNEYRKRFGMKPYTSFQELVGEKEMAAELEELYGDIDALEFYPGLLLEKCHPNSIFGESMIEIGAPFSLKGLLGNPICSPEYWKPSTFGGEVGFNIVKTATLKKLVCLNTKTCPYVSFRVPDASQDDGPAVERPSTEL

Rattus norvegicus [2] = assay: Analgesic activity in Wistar rat assessed as reduction in acetic acid-induced writhing at 10 mg/kg, ip incubated for 30 mins followed by acetic acid addition and observed for 30 mins relative to control; format: functional; details: 0.5 h
Rattus norvegicus [3] = assay: Analgesic activity in Wistar rat assessed as reduction in formalin-induced flitching in neurogenic phase at 10 mg/kg, ip incubated for 30 mins followed by formalin addition and observed for 60 mins; format: functional, organism-based
Rattus norvegicus [4] = assay: Analgesic activity in Wistar rat assessed as reduction in formalin-induced flitching in inflammatory phase at 10 mg/kg, ip incubated for 30 mins followed by formalin addition and observed for 60 mins; format: functional, organism-based
[5] = target: T1, Prostaglandin G/H synthase 1 (Ovis aries, UniProt P05979); assay: Inhibition of ovine COX1 using arachidonic acid as substrate incubated for 10 mins followed by substrate addition and measured after 2 mins by EIA assay
T1 sequence (P05979 whole entry): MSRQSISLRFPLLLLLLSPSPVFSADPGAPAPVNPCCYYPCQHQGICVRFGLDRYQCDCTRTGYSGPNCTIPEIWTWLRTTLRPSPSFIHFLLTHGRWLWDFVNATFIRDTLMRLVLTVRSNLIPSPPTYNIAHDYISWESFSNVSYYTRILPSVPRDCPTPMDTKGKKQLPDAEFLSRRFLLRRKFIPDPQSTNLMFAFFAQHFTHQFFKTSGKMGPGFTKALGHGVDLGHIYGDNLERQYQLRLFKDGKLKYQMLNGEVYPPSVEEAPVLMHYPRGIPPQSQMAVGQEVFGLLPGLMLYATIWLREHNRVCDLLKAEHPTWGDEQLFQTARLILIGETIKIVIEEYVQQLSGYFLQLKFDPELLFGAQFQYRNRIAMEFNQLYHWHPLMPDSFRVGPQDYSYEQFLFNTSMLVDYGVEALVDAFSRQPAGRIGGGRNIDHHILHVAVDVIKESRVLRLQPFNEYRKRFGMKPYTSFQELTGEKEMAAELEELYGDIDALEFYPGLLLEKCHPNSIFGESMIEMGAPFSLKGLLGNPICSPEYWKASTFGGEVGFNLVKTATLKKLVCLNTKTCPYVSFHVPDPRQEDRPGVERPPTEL

[6] = target: T2, Prostaglandin G/H synthase 2 (Rattus norvegicus) (UniProt P35355); assay: In vivo inhibition of COX2 in Wistar rat assessed as reduction in formalin-induced COX2 expression at 10 mg/kg, ip incubated for 30 mins followed by formalin addition and measured after 2 hrs by immunofluorescence based assay; format: functional, organism-based
T2 sequence (whole entry): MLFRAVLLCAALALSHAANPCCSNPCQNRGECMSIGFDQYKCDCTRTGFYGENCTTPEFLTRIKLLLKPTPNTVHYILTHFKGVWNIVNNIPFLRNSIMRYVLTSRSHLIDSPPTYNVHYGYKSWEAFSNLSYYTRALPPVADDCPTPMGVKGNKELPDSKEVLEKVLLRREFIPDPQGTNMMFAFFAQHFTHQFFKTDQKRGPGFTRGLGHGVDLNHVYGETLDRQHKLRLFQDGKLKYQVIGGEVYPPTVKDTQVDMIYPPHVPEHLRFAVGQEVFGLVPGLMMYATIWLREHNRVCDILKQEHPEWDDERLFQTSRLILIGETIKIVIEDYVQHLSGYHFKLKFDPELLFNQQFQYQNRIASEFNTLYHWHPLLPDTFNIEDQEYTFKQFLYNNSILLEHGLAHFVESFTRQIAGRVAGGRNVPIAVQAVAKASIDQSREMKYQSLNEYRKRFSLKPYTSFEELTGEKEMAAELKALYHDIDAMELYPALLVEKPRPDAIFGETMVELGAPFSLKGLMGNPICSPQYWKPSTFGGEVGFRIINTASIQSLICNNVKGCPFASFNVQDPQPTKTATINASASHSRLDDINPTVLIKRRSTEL

[7] = Protein binding in plasma (unknown origin); format: ADME, cell-free; details: read-out: PPB (converted)
[8] = Ratio of drug level in brain to blood (unknown origin); format: ADME, tissue-based; details: read-out: BBR
[9] = Solubility of compound in pure water; format: physicochemical
[10] = Drug absorption in human intestine; format: ADME, tissue-based; details: read-out: Drug absorption
Rattus norvegicus [11] = assay: Analgesic activity in Wistar rat assessed as reduction in acetic acid-induced writhing at 10 mg/kg, ip incubated for 30 mins followed by acetic acid addition and observed for 30 mins; format: functional, organism-based
[12] = Acute toxicity in Wistar rat assessed as behavioral alterations at 2000 mg/kg, po observed for 14 days; format: organism-based; details: in vivo, 336 h
[13] = Acute toxicity in Wistar rat assessed as effect on liver at 2000 mg/kg, po measured after 14 days by hematoxylin-eosin staining based light microscopy; format: organism-based; details: in vivo, 336 h
[14] = Acute toxicity in Wistar rat assessed as effect on kidney at 2000 mg/kg, po measured after 14 days by hematoxylin-eosin staining based light microscopy; format: organism-based; details: in vivo, 336 h

Q: What does the source list for `COc1ccc2c(c1)c(CC(=O)O)c(C)n2C(=O)c1ccc(Cl)cc1` [INDOMETHACIN]?
A: Activity [1]: 0.59 ng/mL; inhibition in vivo at 10 mg/kg (Rattus norvegicus [2]): 70%; Activity (Rattus norvegicus [3]): Active; Activity (Rattus norvegicus [4]): Active

Q: With `COC(=O)[C@@H](N)Cc1cn(-c2nc(Cl)nc(Nc3ccc(N4CCOCC4=O)cc3)n2)c2ccccc12` as the compound, how does the IC50 [5] read?
A: The IC50 was over 10 µM.

Q: What about the Activity [1] of the same compound?
A: Its Activity is 0.9 ng/mL.

Q: And the inhibition in vivo at 10 mg/kg (Rattus norvegicus [2])?
A: Its inhibition in vivo at 10 mg/kg is 73%.

Q: What about the Activity (Rattus norvegicus [3]) of the same compound?
A: The Activity was “Active”.

Q: And the inhibition [6]?
A: Its inhibition is “Active”.

Q: And the fraction unbound [7]?
A: The fraction unbound was 0.124.

Q: And the Kp [8]?
A: The Kp was 0.09.

Q: What about the solubility [9] of the same compound?
A: Its solubility is 30 µg/mL (≈ 0.0575 mM).

Q: And the Fa [10]?
A: The Fa was 97.2%.

Q: And the Activity (Rattus norvegicus [4])?
A: Its Activity is “Active”.

Q: For `COC(=O)[C@H](Cc1ccc(O)cc1)n1cc(COc2nc(Cl)nc(N3CCOCC3)n2)nn1`, which IC50 [5] is on record?
A: The IC50 was over 10 µM.

Q: Which Activity (Rattus norvegicus [11]) does the source give for `COC(=O)[C@@H]1CCCN1c1nc(Cl)nc(Nc2ccc(N3CCOCC3=O)cc2)n1` here?
A: Its Activity is “Active”.

Q: With `COC(=O)[C@H](Cc1ccccc1)n1cc(COc2nc(Cl)nc(Nc3ccc(Cl)cc3)n2)nn1` as the compound, how does the IC50 [5] read?
A: The IC50 was 5 µM.

Q: Which IC50 [5] does the source give for `Clc1nc(OCc2cn(Cc3ccccc3)nn2)nc(N2CCCC2)n1` here?
A: The IC50 was 8 µM.

Q: With `COC(=O)[C@H](Cc1ccc(O)cc1)n1cc(COc2nc(Cl)nc(N3CCCC3)n2)nn1` as the compound, how does the IC50 [5] read?
A: The IC50 was over 10 µM.

Q: With `CC[C@H](C)[C@H](Nc1nc(Cl)nc(Nc2ccc(N3CCOCC3=O)cc2)n1)C(=O)OC` as the compound, how does the IC50 [5] read?
A: Its IC50 is over 10 µM.

Q: What about the Activity (Rattus norvegicus [11]) of the same compound?
A: Its Activity is “Active”.

Q: For `O=C1COCCN1c1ccc(Nc2nc(Cl)nc(N3CCCC3)n2)cc1`, which IC50 [5] is on record?
A: Its IC50 is over 10 µM.

Q: What about the fraction unbound [7] of the same compound?
A: The fraction unbound was 0.143.

Q: What about the Kp [8] of the same compound?
A: Its Kp is 0.01.

Q: What about the solubility [9] of the same compound?
A: The solubility was 4910 µg/mL (≈ 13.1 mM).

Q: And the Fa [10]?
A: Its Fa is 96.8%.

Q: Which IC50 [5] does the source give for `COC(=O)[C@H](Cc1ccccc1)n1cc(COc2nc(Cl)nc(N3CCOCC3)n2)nn1` here?
A: The IC50 was over 10 µM.

Q: With `Clc1nc(OCc2cn(Cc3ccccc3)nn2)nc(N2CCOCC2)n1` as the compound, how does the IC50 [5] read?
A: Its IC50 is over 10 µM.

Q: With `O=C(O)c1ccccc1Nc1nc(Cl)nc(Nc2ccc(N3CCOCC3=O)cc2)n1` as the compound, how does the IC50 [5] read?
A: The IC50 was over 10 µM.

Q: With `COC(=O)[C@@H](N)Cc1cn(-c2nc(Cl)nc(N3CCCCC3)n2)c2ccccc12` as the compound, how does the IC50 [5] read?
A: Its IC50 is over 10 µM.

Q: What about the Activity [1] of the same compound?
A: Its Activity is 0.84 ng/mL.

Q: What about the inhibition in vivo at 10 mg/kg (Rattus norvegicus [2]) of the same compound?
A: The inhibition in vivo at 10 mg/kg was 65%.

Q: What about the Activity (Rattus norvegicus [3]) of the same compound?
A: The Activity was “Active”.

Q: What about the inhibition [6] of the same compound?
A: Its inhibition is “Active”.

Q: What about the Activity [12] of the same compound?
A: Its Activity is “Non-Toxic”.

Q: What about the Activity [13] of the same compound?
A: Its Activity is “Non-Toxic”.

Q: What about the Activity [14] of the same compound?
A: The Activity was “Non-Toxic”.

Q: And the fraction unbound [7]?
A: The fraction unbound was 0.149.

Q: And the Kp [8]?
A: Its Kp is 0.66.

Q: And the solubility [9]?
A: The solubility was 740 µg/mL (≈ 1.78 mM).

Q: What about the Fa [10] of the same compound?
A: Its Fa is 98.2%.

Q: What about the Activity (Rattus norvegicus [4]) of the same compound?
A: Its Activity is “Active”.

Q: With `COC(=O)[C@H](Cc1cn(-c2nc(Cl)nc(Nc3ccc(N4CCOCC4=O)cc3)n2)c2ccccc12)NC(=O)OC(C)(C)C` as the compound, how does the Activity (Rattus norvegicus [11]) read?
A: Its Activity is “Active”.

Q: Which IC50 [5] does the source give for `COC(=O)[C@H](Cc1ccccc1)n1cc(COc2nc(Cl)nc(N3CCCC3)n2)nn1` here?
A: Its IC50 is over 10 µM.

Q: For `COC(=O)[C@H](Cc1ccccc1)n1cc(COc2nc(Cl)nc(Nc3ccc(N4CCOCC4=O)cc3)n2)nn1`, which IC50 [5] is on record?
A: The IC50 was 8 µM.

Q: With `Clc1ccc(Nc2nc(Cl)nc(OCc3cn(Cc4ccccc4)nn3)n2)cc1` as the compound, how does the IC50 [5] read?
A: Its IC50 is 4 µM.

Q: Which IC50 [5] does the source give for `COC(=O)[C@H](Cc1ccc(O)cc1)n1cc(COc2nc(Cl)nc(Nc3ccc(N4CCOCC4=O)cc3)n2)nn1` here?
A: The IC50 was over 10 µM.

Q: Which IC50 [5] does the source give for `COC(=O)[C@H](Cc1ccccc1)Nc1nc(Cl)nc(Nc2ccc(N3CCOCC3=O)cc2)n1` here?
A: The IC50 was over 10 µM.

Q: And the Activity (Rattus norvegicus [11])?
A: Its Activity is “Active”.

Q: With `N[C@@H](Cc1cn(-c2nc(Cl)nc(N3CCOCC3)n2)c2ccccc12)C(=O)O` as the compound, how does the IC50 [5] read?
A: The IC50 was 1 µM.

Q: What about the fraction unbound [7] of the same compound?
A: Its fraction unbound is 0.324.

Q: And the Kp [8]?
A: The Kp was 0.19.

Q: What about the solubility [9] of the same compound?
A: Its solubility is 5810 µg/mL (≈ 14.4 mM).

Q: What about the Fa [10] of the same compound?
A: The Fa was 96.9%.

Q: With `COC(=O)[C@H](Cc1c[nH]c2ccccc12)n1cc(COc2nc(Cl)nc(N3CCCCC3)n2)nn1` as the compound, how does the IC50 [5] read?
A: Its IC50 is over 10 µM.

Q: For `COC(=O)[C@@H](N)Cc1ccc(Oc2nc(Cl)nc(N3CCCCC3)n2)cc1`, which IC50 [5] is on record?
A: Its IC50 is over 10 µM.

Q: Which Activity (Rattus norvegicus [11]) does the source give for `COC(=O)[C@@H](N)Cc1ccc(Oc2nc(Cl)nc(N3CCOCC3)n2)cc1` here?
A: The Activity was “Active”.

Q: For `O=C1COCCN1c1ccc(Nc2nc(Cl)nc(OCc3cn(Cc4ccccc4)nn3)n2)cc1`, which IC50 [5] is on record?
A: The IC50 was 6 µM.

Q: With `COC(=O)[C@H](Cc1c[nH]c2ccccc12)n1cc(COc2nc(Cl)nc(N3CCOCC3)n2)nn1` as the compound, how does the IC50 [5] read?
A: Its IC50 is over 10 µM.
